Experimental data: paper PMC3141555, “Neuroprotective effect of a new DJ-1-binding compound against neurodegeneration in Parkinson's disease and stroke model rats” (2011)

T1: DJ-1 (Homo sapiens, UniProt Q99497)
T1 construct: gene PARK7; recombinant DJ-1
T1 sequence (Q99497 2-189): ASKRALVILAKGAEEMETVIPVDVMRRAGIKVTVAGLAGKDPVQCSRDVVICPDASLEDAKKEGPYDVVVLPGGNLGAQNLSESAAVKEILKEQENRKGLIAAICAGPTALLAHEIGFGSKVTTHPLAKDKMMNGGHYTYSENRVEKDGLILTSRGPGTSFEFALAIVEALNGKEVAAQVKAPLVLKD

T2: DJ-1 (human (endogenous in SH-SY5Y)), Q99497
T2 chain: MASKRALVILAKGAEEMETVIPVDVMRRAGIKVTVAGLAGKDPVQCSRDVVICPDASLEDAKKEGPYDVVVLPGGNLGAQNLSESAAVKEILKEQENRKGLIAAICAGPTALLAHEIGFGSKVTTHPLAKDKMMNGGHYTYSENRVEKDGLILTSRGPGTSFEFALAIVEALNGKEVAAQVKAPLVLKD

B1: DJ-1, Q99497 1-189 (natural protein)
chain: T2 chain

Key:
DJ-1 = target: T1, DJ-1; assay: quartz crystal microbalance (compound fixed on sensor chip, recombinant DJ-1 applied); format: binding
[1] = target: T2, DJ-1 (human (endogenous in SH-SY5Y)), …; assay: cross-linking; SH-SY5Y cells incubated with 1 uM compound-23 or compound-B for 20 hours, treated with various amounts of H2O2 for 3 hours, then 0.5 mM DSS (or DMSO) for 30 min; extracts analysed by Western blotting with an anti-DJ-1 antibody; conditions: remark: other sources report otherwise

Molecule | Kd (DJ-1) [nM] | stoichiometry N [1]
COc1cc(C(=O)Nc2ccc(-c3cn4cccc(C)c4n3)cc2)cc(OC)c1OC [compound-23, N-[4-(8-methyl(4-hydroimidazo[1,2-a]pyridin-2-yl))phenyl](3,4,5-trimethoxyphenyl)carboxamide] | 103 | 
B1 |  | 2
